Results as given in ChEMBL document CHEMBL1126833, “3-Substituted, 3-(4-pyridinylmethyl)-1,3-dihydro-1-phenyl-2H-indol-2-ones as acetylcholine release enhancers: synthesis and SAR” (J Med Chem, 1993).

How the values were obtained:
Format in all cases: functional
Rattus norvegicus [1] = species: Rattus norvegicus; assay: Ability to enhance stimulated release of AcCh from striatum region of rat brain
Rattus norvegicus [2] = assay: Tested for rat passive avoidance hypoxia induced amnesia at 1.0 mg/kg administered subcutaneously; details: route subcutaneous
Rattus norvegicus [3] = assay: Tested for rat passive avoidance hypoxia induced amnesia at 10.0 mg/kg administered subcutaneously (p<0.025); details: route subcutaneous
Rattus norvegicus [4] = assay: Tested for rat passive avoidance hypoxia induced amnesia at 30.0 mg/kg administered subcutaneously (p<0.05); details: route subcutaneous
Rattus norvegicus [5] = assay: Tested for rat passive avoidance hypoxia induced amnesia at 0.1 mg/kg administered subcutaneously; details: route subcutaneous
Rattus norvegicus [6] = assay: Tested for rat passive avoidance hypoxia induced amnesia at 0.3 mg/kg administered subcutaneously.; details: route subcutaneous
Rattus norvegicus [7] = species: Rattus norvegicus; assay: Tested for rat passive avoidance hypoxia induced amnesia (no hypoxia)
Rattus norvegicus [8] = assay: Tested for rat passive avoidance hypoxia induced amnesia at 3.0 mg/kg administered subcutaneously (p<0.025); details: route subcutaneous
Rattus norvegicus [9] = assay: Tested for rat passive avoidance hypoxia induced amnesia at 100 mg/kg administered subcutaneously; details: route subcutaneous

`Cl.O=C1N(c2ccccc2)c2ccccc2C1(CCO)Cc1ccncc1` (centres undefined) gave a Release (Rattus norvegicus [1]) of 12%.

For `Cl.N#CCC1(Cc2ccncc2)C(=O)N(c2ccccc2)c2ccccc21` (centres undefined), the Release (Rattus norvegicus [1]) was 11%.

In the case of `O=C1N(c2ccccc2)c2ccccc2C1(O)Cc1ccncc1` (centres undefined), the Release (Rattus norvegicus [1]) was 8%.

With `CC(=O)OCCCCC1(Cc2ccncc2)C(=O)N(c2ccccc2)c2ccccc21.Cl` (centres undefined) the Release (Rattus norvegicus [1]) was 27%.

In the case of `CCCCCCC1(Cc2ccncc2)C(=O)N(c2ccccc2)c2ccccc21` (centres undefined), the Release (Rattus norvegicus [1]) was 6%.

In the case of `O=C1N(c2ccccc2)c2ccccc2C1(CCCO)Cc1ccncc1` (centres undefined), the Release (Rattus norvegicus [1]) was 27%.

`Cl.O=C(O)CCCC1(Cc2ccncc2)C(=O)N(c2ccccc2)c2ccccc21` (centres undefined) gave a Release (Rattus norvegicus [1]) of 0%.

With `CCOC(=O)CC1(Cc2ccncc2)C(=O)N(c2ccccc2)c2ccccc21.Cl` (centres undefined) the Release (Rattus norvegicus [1]) was 21%.

With `Cl.N#CCCCCCC1(Cc2ccncc2)C(=O)N(c2ccccc2)c2ccccc21` (centres undefined) the Release (Rattus norvegicus [1]) was 74%.

For `O=C1N(c2ccccc2)c2ccccc2C1(Cc1ccncc1)Cc1ccncc1` [LINOPIRDINE], the Release (Rattus norvegicus [1]) was 100%.

Molecule `CCOC(=O)CCCC1(Cc2ccncc2)C(=O)N(c2ccccc2)c2ccccc21.Cl` (single isomer, unassigned; (-)) has a Release (Rattus norvegicus [1]) of 3%.

Work on `Cl.O=C1N(c2ccccc2)c2ccccc2C1(CCCCO)Cc1ccncc1` (centres undefined) yielded a Release (Rattus norvegicus [1]) of 29%.

`CCCS(=O)(=O)CCCCC1(Cc2ccncc2)C(=O)N(c2ccccc2)c2ccc(Cl)cc21.Cl` (centres undefined) was tested, and the Release (Rattus norvegicus [1]) was 8%.

Molecule `Cl.O=C(O)CC1(Cc2ccncc2)C(=O)N(c2ccccc2)c2ccccc21` (centres undefined) has a Release (Rattus norvegicus [1]) of -2%.

Molecule `Cl.N#CCCCCC1(Cc2ccncc2)C(=O)N(c2ccccc2)c2ccccc21` (centres undefined) has a Release (Rattus norvegicus [1]) of 133%.

Work on `O=C1C(Cc2ccncc2)c2ccccc2N1c1ccccc1` (centres undefined) yielded a Release (Rattus norvegicus [1]) of 0%.

`CCOCCCCC1(Cc2ccncc2)C(=O)N(c2ccccc2)c2ccccc21.Cl` (centres undefined) was tested, and the Release (Rattus norvegicus [1]) was 17%.

With `Cl.O=C(CCCC1(Cc2ccncc2)C(=O)N(c2ccccc2)c2ccccc21)c1ccc(F)cc1` (centres undefined) the Release (Rattus norvegicus [1]) was 29%.

Work on `CCOC(=O)CCCC1(Cc2ccncc2)C(=O)N(c2ccccc2)c2ccccc21.Cl` (stereo in doubt; 8) yielded a Median retension latency (Rattus norvegicus [2]) of 89.5, a Median retension latency (Rattus norvegicus [3]) of 136 and a Median retension latency (Rattus norvegicus [4]) of 201. The Median retension latency (Rattus norvegicus [5]) was 79.5, the Release (Rattus norvegicus [1]) was 99% and the Median retension latency (Rattus norvegicus [6]) was 37.5. It also gave a Median retension latency (Rattus norvegicus [7]) of 300, a Median retension latency (Rattus norvegicus [8]) of 112 and a Median retension latency (Rattus norvegicus [9]) of 34.

In the case of `CCOC(=O)/C=C/CC1(Cc2ccncc2)C(=O)N(c2ccccc2)c2ccccc21.Cl` (centres undefined), the Release (Rattus norvegicus [1]) was 41%.

Work on `CCCSCCCCC1(Cc2ccncc2)C(=O)N(c2ccccc2)c2ccccc21.Cl` (centres undefined) yielded a Release (Rattus norvegicus [1]) of 24%.

With `Cl.N#CCCCCCCC1(Cc2ccncc2)C(=O)N(c2ccccc2)c2ccccc21` (centres undefined) the Release (Rattus norvegicus [1]) was 19%.

`CCOC(=O)CCC1(Cc2ccncc2)C(=O)N(c2ccccc2)c2ccccc21.Cl` (centres undefined) was tested, and the Release (Rattus norvegicus [1]) was 57%.

In the case of `CN(C)CCC1(Cc2ccncc2)C(=O)N(c2ccccc2)c2ccccc21.Cl.Cl` (centres undefined), the Release (Rattus norvegicus [1]) was 3%.

`CCOC(=O)CCCC1(Cc2ccncc2)C(=O)N(c2ccccc2)c2ccccc21.Cl` (racemic) showed a Release (Rattus norvegicus [1]) of 109%.

Work on `Cl.O=C(CCC1(Cc2ccncc2)C(=O)N(c2ccccc2)c2ccccc21)c1ccc(F)cc1` (centres undefined) yielded a Release (Rattus norvegicus [1]) of 11%.

With `Cl.N#CCCCC1(Cc2ccncc2)C(=O)N(c2ccccc2)c2ccccc21` (centres undefined) the Release (Rattus norvegicus [1]) was 74%.

Work on `COC(=O)CCC1(Cc2ccncc2)C(=O)N(c2ccccc2)c2ccccc21.Cl` (centres undefined) yielded a Release (Rattus norvegicus [1]) of 51%.

Molecule `CC(=O)CCCC1(Cc2ccncc2)C(=O)N(c2ccccc2)c2ccccc21.Cl` (centres undefined) has a Release (Rattus norvegicus [1]) of 18%.

`CCOC(=O)CCCCC1(Cc2ccncc2)C(=O)N(c2ccccc2)c2ccccc21.Cl` (centres undefined) gave a Release (Rattus norvegicus [1]) of 3%.

Molecule `Cl.NC(=O)CCCC1(Cc2ccncc2)C(=O)N(c2ccccc2)c2ccccc21` (centres undefined) has a Release (Rattus norvegicus [1]) of 26%.
